The text below walks through data of patent publication US20200347043A1, “MODULATORS OF THE INTEGRATED STRESS PATHWAY” (Calico Life Sciences LLC, priority 2019, published 2020).

Structures are written as SMILES. pEC50: −log10 of the molar value. Bounds are passed on as bounds.

The assay concerns HEK293T cells carrying the ATF4 luciferase reporter. Nature of the assay: ATF4-Luc assay (in vitro model of VWMD). The class given is cell-based, human. Conditions: Homo sapiens, HEK-293T, 1 μg/mL tunicamycin, 7 hours, One Glo luminescence. The gist of the method: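 Tunicamycin (1 μg/mL) stress with co-added compound for 7 hours in HEK293T cells stably carrying an ATF4 5′-UTR–luciferase reporter. EC50 values come from the luminescent signal (One Glo).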
As to `O=C(NC12CC(n3cnc(-c4ccc(C(F)(F)F)nc4)c3)(C1)C2)[C@@H]1C[C@@H](O)c2cc(Cl)ccc2O1` [Compound 231, (2S,4R)-6-chloro-4-hydroxy-N-(3-{4-[6-(trifluoromethyl)pyridin-3-yl]-1H-imidazol-1-yl}bicyclo[1.1.1]pentan-1-yl)-3,4-dihydro-2H-1-benzopyran-2-carboxamide], the pEC50 is 7.30 to 8.00.

As to `O=C(NC12CC(C3=NOC([C@H]4C[C@@H](OC(F)(F)F)C4)C3)(C1)C2)[C@H]1C[C@@H](O)c2cc(Cl)ccc2O1` (stereo partly drawn) [Compound 232, (2R,4R)-6-chloro-4-hydroxy-N-{3-(5-[cis-3-(trifluoromethoxy)cyclobutyl]-4,5-dihydro-1,2-oxazol-3-yl}bicyclo[1.1.1]pentan-1-yl)-3,4-dihydro-2H-1-benzopyran-2-carboxamide], the negative-log EC50 (pEC50) was 6.60 to 7.30.

Regarding `O=C(NC12CC(C3=NOC([C@H]4C[C@@H](OC(F)(F)F)C4)C3)(C1)C2)[C@@H]1C[C@@H](O)c2cc(Cl)ccc2O1` (stereo partly drawn) [Compound 233, (2S,4R)-6-chloro-4-hydroxy-N-(3-{5-[cis-3-(trifluoromethoxy)cyclobutyl]-4,5-dihydro-1,2-oxazol-3-yl}bicyclo[1.1.1]pentan-1-yl)-3,4-dihydro-2H-1-benzopyran-2-carboxamide], the pEC50 was 5.70 to 6.30.

With `O=C(NC12CC(c3cc([C@H]4C[C@@H](OC(F)(F)F)C4)on3)(C1)C2)[C@H]1C[C@@H](O)c2cc(Cl)ccc2O1` [Compound 234, (2R,4R)-6-chloro-4-hydroxy-N-{3-(5-[cis-3-(trifluoromethoxy)cyclobutyl]-1,2-oxazol-3-yl}bicyclo[1.1.1]pentan-1-yl)-3,4-dihydro-2H-1-benzopyran-2-carboxamide], the negative-log EC50 (pEC50) is 7.30 to 8.00.

For `O=C(NC12CC(n3ncc4cc(Cl)ccc43)(C1)C2)[C@H]1C[C@@H](O)c2cc(Cl)ccc2O1` [Compound 235, (2R,4R)-6-chloro-N-[3-(5-chloro-1H-indazol-1-yl)bicyclo[1.1.1]pentan-1-yl]-4-hydroxy-3,4-dihydro-2H-1-benzopyran-2-carboxamide], the negative-log EC50 (pEC50) was 6.60 to 7.30.

Turning to `O=C(NC12CC(n3cc(-c4ccc(Cl)cc4)cn3)(C1)C2)[C@@H]1C[C@@H](O)c2cc(Cl)ccc2O1` [Compound 236, (2S,4R)-6-chloro-N-{3-[4-(4-chlorophenyl)-1H-pyrazol-1-yl]bicyclo[1.1.1]pentan-1-yl}-4-hydroxy-3,4-dihydro-2H-1-benzopyran-2-carboxamide], the negative logarithm of the EC50 (pEC50) is more than 8.00.

For `O=C(NC12CC(c3cnn(-c4ccc(Cl)c(F)c4)c3)(C1)C2)[C@H]1C[C@@H](O)c2cc(Cl)ccc2O1` [Compound 237, (2R,4R)-6-chloro-N-{3-[1-(4-chloro-3-fluorophenyl)-1H-pyrazol-4-yl]bicyclo[1.1.1]pentan-1-yl}-4-hydroxy-3,4-dihydro-2H-1-benzopyran-2-carboxamide], the pEC50 is more than 8.00.

For `O=C(NC12CC(c3cnn(-c4ccc(Cl)c(F)c4)c3)(C1)C2)[C@@H]1C[C@@H](O)c2cc(Cl)ccc2O1` [Compound 238, (2S,4R)-6-chloro-N-{3-[1-(4-chloro-3-fluorophenyl)-1H-pyrazol-4-yl]bicyclo[1.1.1]pentan-1-yl}-4-hydroxy-3,4-dihydro-2H-1-benzopyran-2-carboxamide], the pEC50 was 7.30 to 8.00.

Regarding `O=C(CO[C@H]1C[C@@H](OC(F)(F)F)C1)NC12CCC(NC(=O)[C@@H]3C[C@@H](O)c4cc(Cl)ccc4O3)(CC1)CC2` [Compound 239, (2S,4R)-6-chloro-4-hydroxy-N-[4-(2-{[cis-3-(trifluoromethoxy)cyclobutyl]oxy}acetamido)bicyclo[2.2.2]octan-1-yl]-3,4-dihydro-2H-1-benzopyran-2-carboxamide], the pEC50 is 7.30 to 8.00.

Take `O=C(NC12CC(n3ccc(-c4ccc(Cl)cc4)c3)(C1)C2)[C@H]1C[C@@H](O)c2cc(Cl)ccc2O1` [Compound 240, (2R,4R)-6-chloro-N-{3-[3-(4-chlorophenyl)-1H-pyrrol-1-yl]bicyclo[1.1.1]pentan-1-yl}-4-hydroxy-3,4-dihydro-2H-1-benzopyran-2-carboxamide]: the negative logarithm of the EC50 (pEC50) was more than 8.00.

Regarding `O=C(NC12CC(n3ccc(-c4ccc(Cl)cc4)c3)(C1)C2)[C@@H]1C[C@@H](O)c2cc(Cl)ccc2O1` [Compound 241, (2S,4R)-6-chloro-N-{3-[3-(4-chlorophenyl)-1H-pyrrol-1-yl]bicyclo[1.1.1]pentan-1-yl}-4-hydroxy-3,4-dihydro-2H-1-benzopyran-2-carboxamide], the negative logarithm of the EC50 (pEC50) is 6.60 to 7.30.

`O=C(NC12CC(n3ccc(-c4ccc(Cl)c(F)c4)c3)(C1)C2)[C@H]1C[C@@H](O)c2cc(Cl)ccc2O1` [Compound 242, (2R,4R)-6-chloro-N-{3-[3-(4-chloro-3-fluorophenyl)-1H-pyrrol-1-yl]bicyclo[1.1.1]pentan-1-yl}-4-hydroxy-3,4-dihydro-2H-1-benzopyran-2-carboxamide]: the negative-log EC50 (pEC50) is more than 8.00.

On to `O=C(NC12CC(n3ccc(-c4ccc(Cl)c(F)c4)c3)(C1)C2)[C@@H]1C[C@@H](O)c2cc(Cl)ccc2O1` [Compound 243, (2S,4R)-6-chloro-N-{3-[3-(4-chloro-3-fluorophenyl)-1H-pyrrol-1-yl]bicyclo[1.1.1]pentan-1-yl}-4-hydroxy-3,4-dihydro-2H-1-benzopyran-2-carboxamide], for which the pEC50 was 6.60 to 7.30.

Take `O=C(NC12CC(n3ccc(-c4ccc(C(F)(F)F)nc4)c3)(C1)C2)[C@H]1C[C@@H](O)c2cc(Cl)ccc2O1` [Compound 244, (2R,4R)-6-chloro-4-hydroxy-N-(3-{3-[6-(trifluoromethyl)pyridin-3-yl]-1H-pyrrol-1-yl}bicyclo[1.1.1]pentan-1-yl)-3,4-dihydro-2H-1-benzopyran-2-carboxamide]: the pEC50 is more than 8.00.

As to `O=C(NC12CC(n3ccc(-c4ccc(C(F)(F)F)nc4)c3)(C1)C2)[C@@H]1C[C@@H](O)c2cc(Cl)ccc2O1` [Compound 245, (2S,4R)-6-chloro-4-hydroxy-N-(3-{3-[6-(trifluoromethyl)pyridin-3-yl]-1H-pyrrol-1-yl}bicyclo[1.1.1]pentan-1-yl)-3,4-dihydro-2H-1-benzopyran-2-carboxamide], the pEC50 is 6.60 to 7.30.

`O=C(NC12CC(c3cc(-c4ccc(Cl)cc4)no3)(C1)C2)[C@H]1C[C@@H](O)c2cc(Cl)ccc2O1` [Compound 246, (2R,4R)-6-chloro-N-{3-[3-(4-chlorophenyl)-1,2-oxazol-5-yl]bicyclo[11.11]pentan-1-yl}-4-hydroxy-3,4-dihydro-2H-1-benzopyran-2-carboxamide]: the pEC50 is 7.30 to 8.00.

With `O=C(NC12CC(c3cc(-c4ccc(Cl)cc4)no3)(C1)C2)[C@@H]1C[C@@H](O)c2cc(Cl)ccc2O1` [Compound 247, (2S,4R)-6-chloro-N-{3-[3-(4-chlorophenyl)-1,2-oxazol-5-yl]bicyclo[1.1.1]pentan-1-yl}-4-hydroxy-3,4-dihydro-2H-1-benzopyran-2-carboxamide], the pEC50 is 6.60 to 7.30.

In the case of `O=C(NC12CC(c3cc(-c4ccc(Cl)c(F)c4)no3)(C1)C2)[C@H]1C[C@@H](O)c2cc(Cl)ccc2O1` [Compound 248, (2R,4R)-6-chloro-N-{3-[3-(4-chloro-3-fluorophenyl)-1,2-oxazol-5-yl]bicyclo[1.1.1]pentan-1-yl}-4-hydroxy-3,4-dihydro-2H-1-benzopyran-2-carboxamide], the pEC50 was 7.30 to 8.00.

On to `O=C(NC12CC(c3cc(-c4ccc(Cl)c(F)c4)no3)(C1)C2)[C@@H]1C[C@@H](O)c2cc(Cl)ccc2O1` [Compound 249, (2S,4R)-6-chloro-N-{3-[3-(4-chloro-3-fluorophenyl)-1,2-oxazol-5-yl]bicyclo[11.11]pentan-1-yl}-4-hydroxy-3,4-dihydro-2H-1-benzopyran-2-carboxamide], for which the negative logarithm of the EC50 (pEC50) is 6.60 to 7.30.

On to `O=C(NC12CC(c3cc(-c4ccc(C(F)(F)F)nc4)no3)(C1)C2)[C@H]1C[C@@H](O)c2cc(Cl)ccc2O1` [Compound 250, (2R,4R)-6-chloro-4-hydroxy-N-(3-{3-[6-(trifluoromethyl)pyridin-3-yl]-1,2-oxazol-5-yl}bicyclo[1.1.1]pentan-1-yl)-3,4-dihydro-2H-1-benzopyran-2-carboxamide], for which the pEC50 was 6.60 to 7.30.

`O=C(NC12CC(c3cc(-c4ccc(C(F)(F)F)nc4)no3)(C1)C2)[C@@H]1C[C@@H](O)c2cc(Cl)ccc2O1` [Compound 251, (2S,4R)-6-chloro-4-hydroxy-N-(3-{3-[6-(trifluoromethyl)pyridin-3-yl]-1,2-oxazol-5-yl}bicyclo[1.1.1]pentan-1-yl)-3,4-dihydro-2H-1-benzopyran-2-carboxamide]: the negative-log EC50 (pEC50) was less than 5.70.

As for `O=C(NC12CC(c3ncc(-c4ccc(Cl)cc4)o3)(C1)C2)[C@H]1C[C@@H](O)c2cc(Cl)ccc2O1` [Compound 254, (2R,4R)-6-chloro-N-{3-[5-(4-chlorophenyl)-1,3-oxazol-2-yl]bicyclo[1.1.1]pentan-1-yl}-4-hydroxy-3,4-dihydro-2H-1-benzopyran-2-carboxamide], the pEC50 was more than 8.00.

Regarding `O=C(NC12CC(c3ncc(-c4ccc(Cl)cc4)o3)(C1)C2)[C@@H]1C[C@@H](O)c2cc(Cl)ccc2O1` [Compound 255, (2S,4R)-6-chloro-N-{3-[5-(4-chlorophenyl)-1,3-oxazol-2-yl]bicyclo[1.1.1]pentan-1-yl}-4-hydroxy-3,4-dihydro-2H-1-benzopyran-2-carboxamide], the negative-log EC50 (pEC50) was 7.30 to 8.00.

On to `O=C(NC12CC(c3cc(-c4ccc(Cl)cc4)on3)(C1)C2)[C@H]1C[C@@H](O)c2cc(Cl)ccc2O1` [Compound 256, (2R,4R)-6-chloro-N-{3-[5-(4-chlorophenyl)-1,2-oxazol-3-yl]bicyclo[1.1.1]pentan-1-yl}-4-hydroxy-3,4-dihydro-2H-1-benzopyran-2-carboxamide], for which the pEC50 is more than 8.00.

Take `O=C(NC12CC(c3cc(-c4ccc(Cl)cc4)on3)(C1)C2)[C@@H]1C[C@@H](O)c2cc(Cl)ccc2O1` [Compound 257, (2S,4R)-6-chloro-N-{3-[5-(4-chlorophenyl)-1,2-oxazol-3-yl]bicyclo[1.1.1]pentan-1-yl}-4-hydroxy-3,4-dihydro-2H-1-benzopyran-2-carboxamide]: the negative-log EC50 (pEC50) was 6.60 to 7.30.

By pEC50 is commonly meant the EC50 on a negative log10 scale, so that one unit is a factor of ten.
